Reference: patent US7241439B2, “Biopesticide compositions” (Faculte Universitaire des Sciences Agronomiques de Gembloux, priority 2001, dated 2007)
Where a name gives a salt, the structure may show the parent alone.

Experiments:
B. cinerea = experiment: Protection of wounded apples against postharvest rot (lesion diameter); format: in vivo
Experimental: (§1) Apples (Malus domestics Borkh cv. Golden) were harvested from commercial orchards maintained with standard cultural practices in Belgium and placed in regular long term storage. Commercial class I fruits were used. They were bought from wholesale dealers and stored in a cold room at 4±1° C. for maximum 15 days before use.
(§2) B. cinerea (grey mould) and Penicillium expansum (blue mould) strains were initially isolated from strawberries and apples respectively in Gembloux.
(§3) Conidia from the two pathogenic strains were put in suspension in a glycerol solution (25%) and stored at −70° C. Another storage method consisted of growing the pathogen on Potato Dextrose Agar (PDA) in tubes, covering it then by paraffin oil and keeping the tubes at 25° C. Starting from this stored material, the two fungal strains were transferred to oat medium at 25° C. Conidial suspensions were prepared in an aqueous sterile solution of Tween 20 (0.05%), and were adjusted to the required concentration (10^6 spores/ml) using a Bärker cell.
(§4) Before use, the micro-organisms were subcultured three times successively at 24 hours intervals on PDA (Potato Dextrose Agar). At the third generation, yeast cells were removed from the culture medium and suspended in isotonic water (NaCl 0.85%). Suspension concentrations were adjusted to the required values after the establishment of a regression line in relation with the micro-organisms suspension absorbance (at 595 nm) and the number of colony forming units (cfu) of the same suspension spread onto PDA.
(§5) Fruits were disinfected by dipping for 2 minutes in sodium hypochlorite (10% of the commercial product). They were rinsed in sterile water and dried out under laminar flux before being wounded by removing 6 mm diameter and 3 mm deep blocks of tissue from two sites 4-5 cm apart along the equatorial line of the fruits.
(§6) The wounds were treated by application of 50 μl of compositions of the state of the art or compositions of the invention.
(§7) After a 24 h at 20° C. incubation period in plastic boxes, the wounds have been inoculated with 50 μl of the respective conidial suspensions of the pathogens. The fruits were incubated during one to three weeks at 25° C.
The diameters of the lesions developing around the wounds were measured after 7, 10, 14 and up to 20 days after treatment. Four fruits (8 wounds) were used per treatment.
(§8) The percentage of protection provided by the different treatments is calculated from the diameter of lesion caused by the fruit rot agent after the incubation time using the following formula:
(§9) [formula] where Y is the percentage of protection; DT is the mean diameter of lesions for the untreated control and Dx is the mean diameter of lesions for the treated fruits.
(§10) Vegetal material, pathogens, antagonistic micro-organisms and treatment method were as in example 1. The wounds were treated by application of 50 pi of compositions of the state of the art or compositions of the invention. The effect of the compositions against postharvest apple rots caused by B. cinerea has been evaluated under controlled conditions.

P. expansum = experiment: as above; format: in vivo, Penicillium expansum
Experimental: as §1, §2, §3, §4, §5, §6, §7
[…] Four fruits (8 wounds) were used per treatment.
as §8, §9, §10

P. digitatum = experiment: Protection of wounded oranges against green mould; format: in vivo, Penicillium digitatum strain CBS31948; conditions: Table 7, GA 0.01% w/v
Experimental: Oranges (Citrus sinensis (L.) Ohl. cv. Valencia) were bought from wholesale dealers and stored in a cold room at 4±1° C. for maximum 15 days before use.
Penicillium digitatum strain CBS31948 (green mould of oranges) was obtained from the CentraalBureau Schimmelcultures, Netherlands collection and initially isolated from Citrus fruits. Conidia from the pathogenic strain were put in suspension in a glycerol solution (25%) and stored at −70° C. Starting from this stored material, the fungal strain was transferred to oat medium at 25° C. Conidial suspensions were prepared in an aqueous sterile solution of Tween 20 (0.05%). Before use, suspensions have been adjusted to the required concentration (10^5 spores/ml) using a Barker cell.
The antagonistic yeast strain P. anomala “strain K” was obtained as in example 1. C. oleophila strain I-182 commercialised under the name Aspire™ was obtained from Ecogen Inc. Both microorganisms were subcultured as in example 1.
Fruits were disinfected and wounded as in example 1. […] The percentage of protection is calculated as in example 1.
Vegetal material, pathogens, antagonistic agents and treatment method were as in example 3. […] The effect of the compositions against postharvest rots caused by P. digitatum has been evaluated under controlled conditions.

[1] = Table 12, M (mannans) 0.02% w/v

Compound: O.O=C[C@H](O)[C@@H](O)[C@@H](O)[C@H](O)C(=O)O [GA, galacturonic acid (monohydrate)]
- % protection against B. cinerea after 7 days (B. cinerea; Table 1, GA 0.01% w/v): 49%
- % protection against B. cinerea after 10 days (B. cinerea; Table 1, GA 0.01% w/v): 42%
- % protection against B. cinerea after 14 days (B. cinerea; Table 1, GA 0.01% w/v): 22%
- % protection against B. cinerea after 20 days (B. cinerea; Table 1, GA 0.01% w/v): 2%
- % protection against B. cinerea after 7 days (B. cinerea; Table 2, GA 0.001% w/v): 87%
- % protection against B. cinerea after 10 days (B. cinerea; Table 2, GA 0.001% w/v): 47%
- % protection against B. cinerea after 14 days (B. cinerea; Table 2, GA 0.001% w/v): 33%
- % protection against B. cinerea after 20 days (B. cinerea; Table 2, GA 0.001% w/v): 0%
- % protection against B. cinerea after 7 days (B. cinerea; Table 3, GA 0.01% w/v): 12%
- % protection against B. cinerea after 7 days (B. cinerea; Table 13, GA 0.001% w/v): 87%
- % protection against B. cinerea after 10 days (B. cinerea; Table 13, GA 0.001% w/v): 47%
- % protection against B. cinerea after 14 days (B. cinerea; Table 13, GA 0.001% w/v): 33%
- % protection against B. cinerea after 20 days (B. cinerea; Table 13, GA 0.001% w/v): 0%
- % protection against P. expansum After 7 days (P. expansum; Table 3, GA 0.01% w/v): 18%
- % protection against P. expansum after 6 days (P. expansum; Table 4, GA 0.001% w/v): 15%
- % protection against P. expansum after 8 days (P. expansum; Table 4, GA 0.001% w/v): 9%
- % protection against P. expansum after 10 days (P. expansum; Table 4, GA 0.001% w/v): 7%
- % protection against P. digitatum after 7 days (P. digitatum): 58%
- % protection against P. digitatum after 10 days (P. digitatum): 36%

Compound: O=C[C@H](O)[C@@H](O)[C@H](O)[C@H](O)C(=O)O [GU, glucuronic acid (sodium salt)]
- % protection against B. cinerea after 7 days (B. cinerea; Table 1, GU 0.001% w/v): 75%
- % protection against B. cinerea after 10 days (B. cinerea; Table 1, GU 0.001% w/v): 46%
- % protection against B. cinerea after 14 days (B. cinerea; Table 1, GU 0.001% w/v): 46%
- % protection against B. cinerea after 20 days (B. cinerea; Table 1, GU 0.001% w/v): 21%
- % protection against B. cinerea after 7 days (B. cinerea; Table 2, GU 0.001% w/v): 75%
- % protection against B. cinerea after 10 days (B. cinerea; Table 2, GU 0.001% w/v): 46%
- % protection against B. cinerea after 14 days (B. cinerea; Table 2, GU 0.001% w/v): 46%
- % protection against B. cinerea after 20 days (B. cinerea; Table 2, GU 0.001% w/v): 21%

Compound: mannans
- % protection against B. cinerea after 7 days (B. cinerea; [1]): 100%
- % protection against B. cinerea after 10 days (B. cinerea; [1]): 78%
- % protection against B. cinerea after 14 days (B. cinerea; [1]): 55%
- % protection against B. cinerea after 20 days (B. cinerea; [1]): 16%
- % protection against B. cinerea after 7 days (B. cinerea; Table 12, M (mannans) 0.2% w/v): 100%
- % protection against B. cinerea after 10 days (B. cinerea; Table 12, M (mannans) 0.2% w/v): 93%
- % protection against B. cinerea after 14 days (B. cinerea; Table 12, M (mannans) 0.2% w/v): 68%
- % protection against B. cinerea after 20 days (B. cinerea; Table 12, M (mannans) 0.2% w/v): 26%
- % protection against B. cinerea after 7 days (B. cinerea; Table 13, M 0.02% w/v): 100%
- % protection against B. cinerea after 10 days (B. cinerea; Table 13, M 0.02% w/v): 78%
- % protection against B. cinerea after 14 days (B. cinerea; Table 13, M 0.02% w/v): 55%
- % protection against B. cinerea after 20 days (B. cinerea; Table 13, M 0.02% w/v): 16%
- % protection against B. cinerea after 7 days (B. cinerea; Table 13, M 0.2% w/v): 100%
- % protection against B. cinerea after 10 days (B. cinerea; Table 13, M 0.2% w/v): 93%
- % protection against B. cinerea after 14 days (B. cinerea; Table 13, M 0.2% w/v): 68%
- % protection against B. cinerea after 20 days (B. cinerea; Table 13, M 0.2% w/v): 28%

Compound: polygalacturonic acid [PGA, reference compound]
- % protection against P. expansum after 6 days (P. expansum; Table 4, PGA 0.001% w/v): 19%
- % protection against P. expansum after 8 days (P. expansum; Table 4, PGA 0.001% w/v): 12%
- % protection against P. expansum after 10 days (P. expansum; Table 4, PGA 0.001% w/v): 10%
